Data as given in patent publication US6699690B2, “Molecular constructs with a carcinoembryonic antigen (CEA) transcriptional regulatory sequence” (SmithKline Beecham Corporation, priority 1992, dated 2004).
Like-named read-outs stand apart in the source and are kept apart here.

Legend:
WiDr tumors = experiment: 5-FC treatment of subcutaneous WiDr tumors in nude mice; format: in vivo; settings: 5-FC ip 500 mg/kg
Description: (§1) The same mixtures of WiDr and WiDr/CD cells were injected subcutaneously into 10 individual nude mice for 10 individual injections of 10 million cells for each mixture (Table 3). By day 6, all mice had tumors of approximately the same size. On day 6, 5 mice of each group received a daily injection of 5-FC (ip at 500 mg/kg body weight) for approximately 20 consecutive days, then injections of 5-FC (ip at 500 mg/kg body weight) three times a week for 19 days. By 22 days post tumor cell injection, all nontreated animals had to be killed due to the large size of the tumors. Likewise, all animals with WiDr derived tumors which also received 5-FC treatment had to be sacrificed on day 22 due to the size of the tumors.

WiDr/CD tumors = experiment: 5-FC treatment of subcutaneous WiDr/CD tumors in nude mice; format: in vivo; settings: WiDr/CD cells injected; 5-FC ip 500 mg/kg; assessed day 130
Description: as §1

WiDr cells = experiment: Inhibition of cell growth by 5-FC in WiDr cells; format: cell-based; settings: Homo sapiens; control WiDr cells, 3,000 cells per well, dosed from Day 3, read Day 8
Description: (§2) FIG. 23: 5-FC dose response of mixed WiDr and WiDr/CD cells. […] Beginning on Day 3, the cells were dosed with serially diluted 5-FC at the concentrations indicated on the x axis. The plates were stained and read on Day 8.
(§3) The following data illustrates and supports this important component of this invention. A human colorectal carcinoma cell line, WiDr, was genetically engineered to express cytosine deaminase (CD) by transfecting into the cell line the cloned gene for cytosine deaminase in an appropriate expression vector system for mammalian cells. WiDr cells expressing cytosine deaminase (WiDR/CD) and control cells not expressing cytosine deaminase (WiDr) were mixed together at different ratios, then plated at a total of 3,000 cells per well in a 96 well microtiter dish. […] Using the same mixtures of WiDr and WiDr/CD cells and again plating 3,000 total cells per well in a 96 well microtiter dish, log dose response curves were generated for the inhibition of cell growth by 5-FC.

[1] = system: mixed WiDr and WiDr/CD tumors; experiment: 5-FC treatment of subcutaneous mixed WiDr:WiDr/CD tumors in nude mice; format: in vivo; settings: 5-FC ip 500 mg/kg; for Number of Cures: assessed day 130
Description: as §1

WiDr/CD cells = experiment: Inhibition of cell growth by 5-FC in WiDr/CD cells; format: cell-based; settings: Homo sapiens; WiDr/CD cells expressing cytosine deaminase, 3,000 cells per well, dosed from Day 3, read Day 8
Description: as §2, §3

HepG2 cells [2] = experiment: ara-ATP formation from (3H)-labelled araM in infected HepG2 cells; format: cell-based, human; settings: HepG2 cells infected with either pCR74- or pCR78-containing viruses
Description: (§4) The replication-defective, full-length, artificial retroviruses containing the ALB/VZV TK chimaera or AFP/VZV TK chimaera were used to infect human hepatoma cell lines called HepG2 (ATCC HB 8065) and HuH7(provided by B. Mason, Fox Chase Cancer Center, Philadelphia, Pa.). Following infection and selection on 1 mg Geneticin/mL, the cells were assayed for VZV TK activity (Geneticin(antibiotic G418 sulphate) is a registered trademark of GIBCO). In addition, HepG2 cells were incubated in the presence of (^3H)-labeled 9-β-D-arabinofuranosyl-6-methoxy-9H-purine (designated as araM in the following tables and figures) with subsequent measurement of ara-ATP formation. Finally, HepG2 and HuH7 cells were cultured in the presence of the abovementioned compound and the IC50 (50% growth inhibition) was determined. Cells infected with no virus or N2 virus act as control samples for these experiments. The N2 viruses contain no VZV TK genetic material.
9-β-D-arabinofuranosyl-6-methoxy-9H-purine (designated as araM) can be selectively monophosphorylated by VZV TK with subsequent anabolism to cytotoxic ara-ATP.

HuH7 cells = experiment: Growth inhibition by araM in HuH7 cells; format: cell-based; settings: Homo sapiens, Huh-7, 120 h, 5 days, read-out: IC50 (50% growth inhibition)
Description: as §4
(§5) HepG2 and HuH7 cells infected with the replication-defective, full-length, artificial retroviruses containing the ALB/VZV TK chimaera (pCR74) or AFP/VZV TK (pCR78) chimaera were incubated in the presence of varying amounts of 9-β-D-arabinofuranosyl-6-methoxy-9H-purine for 5 days and growth inhibition was determined as measured by cell number and DNA content.

HepG2 cells [3] = experiment: Growth inhibition by araM in HepG2 cells; format: cell-based, human; settings: HepG2 infected with ALB/VZV TK (pCR74) virus, 5 days, read-out: IC50 (50% growth inhibition)
Description: as §4, §5

[4] = system: WiDR, MCF7, Detroit 555, and SW480 nonhepatoma cell lines; experiment: Growth inhibition by araM in infected nonhepatoma cell lines; format: cell-based, human; settings: four nonhepatoma cell lines infected with pCR74 or pCR78 virus
Description: Four human, nonhepatoma cell lines were infected with replication-defective, full-length, artifical retroviruses containing the ALB/VZV TK chimaera (pCR74) or AFP/VZV TK chimaera (pCR78). These cell lines were WiDR (ATCC CCL218), MCF7 (ATCC HTB22), Detroit 555 (ATCC CCL110), and SW480 (ATCC CCL228). Subsequent to infection and selection on Geneticin (antibiotic G418 sulphate; registered trademark of GIBCO), these cells were assayed for VZV TK activity and growth inhibition in the presence of 9-β-D-arabinofuranosyl-6-methoxy-9H-purine, as described above. There was no increase in VZV TK activity or drug sensitivity to 9-β-D-arabino-furanosyl-6-methoxy-9H-purine in these four nonhepatoma cell lines infected with replication-defective, full-length, artificial retroviruses containing the ALB/VZV TK chimaera (pCR74) or AFP/VZV TK chimaera (pCR78) compared to parental cell lines which were not infected.

| SMILES | Number of Cures (WiDr tumors; WiDR cells injected, assessed day 22) | effect on tumors (WiDr tumors; WiDr tumors that do not express cytosine deaminase) | Number of Cures (WiDr/CD tumors) | IC50 (WiDr cells) [µM] | Number of Cures ([1]; WiDr:WiDr/CD (1:1) injected) | Number of Cures ([1]; WiDr:WiDr/CD (1:2) injected) | Number of Cures ([1]; WiDr:WiDr/CD (2:1) injected) | antitumor effects ([1]; all tumor groups composed of mixtures of cells which contained WiDr/CD cells) | IC50 (WiDr/CD cells) [µM] | cytotoxic (3H)-ara-ATP formation (HepG2 cells [2]) | IC50 (HuH7 cells; HuH7, no virus (control)) [µM] | IC50 (HuH7 cells; HuH7 infected with AFP/VZV TK (pCR78) virus) [µM] | IC50 (HuH7 cells; HuH7 infected with ALB/VZV TK (pCR74) virus) [µM] | IC50 (HepG2 cells [3]; listed as 9-B-D-arabinofuranosyl-6-methoxy-9H-purine) [µM] | IC50 (HepG2 cells [3]; Homo sapiens, HepG2, 120 h) [µM] | increase in drug sensitivity compared to parental cell lines not infected [4] |
| --- | --- | --- | --- | --- | --- | --- | --- | --- | --- | --- | --- | --- | --- | --- | --- | --- |
| Nc1nc(=O)[nH]cc1F [5-FC, 5-fluorocytosine] | 0/5 | no effect | 3/5 | 10000 to 30000 | 4/5 | 4/5 | 4/5 | significant antitumor effects | 10 to 25 |  |  |  |  |  |  |  |
| COc1ncnc2c1ncn2[C@@H]1O[C@H](CO)[C@@H](O)[C@@H]1O [araM, 9-β-D-arabinofuranosyl-6-methoxy-9H-purine] |  |  |  |  |  |  |  |  |  | significant amounts | ~1620 | 76 | 11 | 5 | 6.5 | no increase |
